In US20210087206A1, “MACROCYCLIC KINASE INHIBITORS AND THEIR USE” (TURNING POINT THERAPEUTICS, INC., priority 2017, published 2021):

Key:
ALK (G1202R) = biological target: T1, ALK (G1202R) (Homo sapiens, UniProt Q9UM73, G1202R); assay: Biochemical kinase assay (Reaction Biology, 33P ATP); details: 10 μM ATP
T1 construct: purchased Reaction Biology Corporation
Method: (§1) Biochemical Kinase Assay Method
(§2) The biochemical kinase assay was performed at Reaction Biology Corporation (www.reactionbiology.com, Malvern, Pa.) following the procedures described in the reference (Anastassiadis T, et al Nat Biotechnol. 2011, 29, 1039). Specific kinase/substrate pairs along with required cofactors were prepared in reaction buffer; 20 mM Hepes pH 7.5, 10 mM MgC2, 1 mM EGTA, 0.02% Brij35, 0.02 mg/ml BSA, 0.1 mM Na3VO4, 2 mM DTT, 1% DMSO. Compounds were delivered into the reaction, followed ˜20 min later by addition of a mixture of ATP (Sigma, St. Louis Mo.) and ^33P ATP (Perkin Elmer, Waltham Mass.) to a final concentration of 10 μM. Reactions were carried out at room temperature for 120 min, followed by spotting of the reactions onto P81 ion exchange filter paper (Whatman Inc., Piscataway, N.J.). Unbound phosphate was removed by extensive washing of filters in 0.75% phosphoric acid. […] IC50 values and curve fits were obtained using Prism (GraphPad Software).

ALK = biological target: T2, ALK (Homo sapiens, UniProt Q9UM73); assay: as above; details: 10 μM ATP
T2 construct: purchased Reaction Biology Corporation
Method: as §1, §2

ALK (L1196M) = biological target: T3, ALK (L1196M) (Homo sapiens, UniProt Q9UM73, L1196M); assay: as above; details: 10 μM ATP
T3 construct: purchased Reaction Biology Corporation
Method: as §1, §2

FGFR1 = biological target: T4, FGFR1 (Homo sapiens, UniProt P11362); assay: as above; details: 10 μM ATP
T4 construct: purchased Reaction Biology Corporation
Method: as §1, §2

FGFR1(V561M) = biological target: T5, FGFR1(V561M) (Homo sapiens, UniProt P11362, V561M); assay: as above; details: 10 μM ATP
T5 construct: purchased Reaction Biology Corporation
Method: as §1, §2

FGFR2 = biological target: T6, FGFR2 (Homo sapiens, UniProt P21802); assay: as above; details: 10 μM ATP
T6 construct: purchased Reaction Biology Corporation
Method: as §1, §2

FGFR3 = biological target: T7, FGFR3 (Homo sapiens, UniProt P22607); assay: as above; details: 10 μM ATP
T7 construct: purchased Reaction Biology Corporation
Method: as §1, §2

FGFR4 = biological target: T8, FGFR4 (Homo sapiens, UniProt P22455); assay: as above; details: 10 μM ATP
T8 construct: purchased Reaction Biology Corporation
Method: as §1, §2

ROS1 (G2032R) = biological target: T9, ROS1 (G2032R) (Homo sapiens, UniProt P08922, G2032R); assay: as above; details: 10 μM ATP
T9 construct: purchased Reaction Biology Corporation
Method: as §1, §2

ROS1 = biological target: T10, ROS1 (Homo sapiens, UniProt P08922); assay: as above; details: 10 μM ATP
T10 construct: purchased Reaction Biology Corporation
Method: as §1, §2

BaF3 EML4-ALK = biological target: T11, BaF3 EML4-ALK (Homo sapiens, UniProt Q9UM73); assay: Cell proliferation assay (CellTiter-Glo); format: cell-based; details: anti-cell proliferation, 72 hours
T11 construct: The EML4-ALK gene (variant 1) was synthesized at GenScript and cloned into pCDH-CMV-MCS-EF1-Puro plasmid (System Biosciences, Inc); fused on or other part: EML4 N-terminal part (variant 1: exons 1-13, with the coiled-coil that oligomerises the fusion) fused to the intracellular part of ALK, which contains the kinase domain; Q9HC35 (Echinoderm microtubule-associated protein-like 4)
How it was run: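 Ba/F3 cells were lentivirally transduced with EML4-ALK variant 1 and selected for puromycin resistance and IL-3-independent growth. Proliferation was measured by CellTiter-Glo ATP luminescence to give IC50.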

KG-1 cell (OP2-FGFR1) = assay: Cell proliferation assay (CellTiter-Glo); format: cell-based; details: Homo sapiens, anti-cell proliferation, 72 hours
How it was run: (§3)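 Cells seeded 24 h, then exposed to compounds for 72 h at 37° C., 5% CO2. Proliferation read by CellTiter-Glo luminescent ATP detection; IC50 from dose-response fits.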

KM12 (TPM3-TRKA) = assay: Cell proliferation assay (CellTiter-Glo); format: cell-based; details: Homo sapiens, anti-cell proliferation, 72 hours
How it was run: as §3

[1] = amide bond; 13-membered ring; 3 steps

T11 sequence (Q9UM73 whole entry, stated change not applied, the tested form may be a part): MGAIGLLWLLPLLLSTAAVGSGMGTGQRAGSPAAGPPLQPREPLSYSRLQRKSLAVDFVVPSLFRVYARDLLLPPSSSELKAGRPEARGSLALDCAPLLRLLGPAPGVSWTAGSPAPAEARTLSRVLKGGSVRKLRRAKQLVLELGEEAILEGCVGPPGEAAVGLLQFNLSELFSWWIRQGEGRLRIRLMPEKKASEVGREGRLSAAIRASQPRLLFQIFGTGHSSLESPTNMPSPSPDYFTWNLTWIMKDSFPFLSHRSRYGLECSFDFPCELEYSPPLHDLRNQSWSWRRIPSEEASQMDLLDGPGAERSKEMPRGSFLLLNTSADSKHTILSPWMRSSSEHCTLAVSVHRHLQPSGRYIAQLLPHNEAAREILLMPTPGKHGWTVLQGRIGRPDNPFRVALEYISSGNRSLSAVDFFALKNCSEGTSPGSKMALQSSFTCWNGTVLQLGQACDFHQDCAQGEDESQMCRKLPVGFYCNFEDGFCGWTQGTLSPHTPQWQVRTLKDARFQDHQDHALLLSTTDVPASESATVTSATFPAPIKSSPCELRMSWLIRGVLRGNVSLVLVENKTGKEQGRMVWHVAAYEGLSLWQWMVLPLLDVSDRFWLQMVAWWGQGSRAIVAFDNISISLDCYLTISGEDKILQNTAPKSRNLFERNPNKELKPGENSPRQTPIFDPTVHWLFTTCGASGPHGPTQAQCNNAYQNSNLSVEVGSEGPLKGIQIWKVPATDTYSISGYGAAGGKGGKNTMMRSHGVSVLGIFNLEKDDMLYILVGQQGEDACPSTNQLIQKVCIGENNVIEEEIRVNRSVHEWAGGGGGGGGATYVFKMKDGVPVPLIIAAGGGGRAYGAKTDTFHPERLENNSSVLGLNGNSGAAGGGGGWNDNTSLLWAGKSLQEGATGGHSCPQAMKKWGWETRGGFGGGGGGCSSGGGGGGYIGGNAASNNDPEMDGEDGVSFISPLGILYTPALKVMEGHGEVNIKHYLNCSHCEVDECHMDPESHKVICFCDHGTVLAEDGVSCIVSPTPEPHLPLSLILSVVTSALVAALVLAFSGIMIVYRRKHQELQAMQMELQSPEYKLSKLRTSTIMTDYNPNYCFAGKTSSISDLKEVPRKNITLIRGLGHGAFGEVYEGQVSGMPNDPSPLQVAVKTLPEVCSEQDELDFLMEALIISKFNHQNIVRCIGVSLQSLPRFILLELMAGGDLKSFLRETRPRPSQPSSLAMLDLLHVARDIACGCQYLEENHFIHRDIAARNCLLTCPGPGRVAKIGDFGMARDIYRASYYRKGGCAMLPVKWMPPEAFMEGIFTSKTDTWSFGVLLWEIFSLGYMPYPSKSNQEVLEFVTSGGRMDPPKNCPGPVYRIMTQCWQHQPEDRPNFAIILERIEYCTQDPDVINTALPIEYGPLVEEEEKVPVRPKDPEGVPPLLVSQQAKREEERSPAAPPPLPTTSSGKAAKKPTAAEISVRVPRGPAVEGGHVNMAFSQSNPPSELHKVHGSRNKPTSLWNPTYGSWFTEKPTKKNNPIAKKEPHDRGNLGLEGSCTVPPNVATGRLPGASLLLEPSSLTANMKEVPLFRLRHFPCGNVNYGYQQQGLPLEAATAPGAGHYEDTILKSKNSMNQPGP
T10 sequence (P08922 28-2347): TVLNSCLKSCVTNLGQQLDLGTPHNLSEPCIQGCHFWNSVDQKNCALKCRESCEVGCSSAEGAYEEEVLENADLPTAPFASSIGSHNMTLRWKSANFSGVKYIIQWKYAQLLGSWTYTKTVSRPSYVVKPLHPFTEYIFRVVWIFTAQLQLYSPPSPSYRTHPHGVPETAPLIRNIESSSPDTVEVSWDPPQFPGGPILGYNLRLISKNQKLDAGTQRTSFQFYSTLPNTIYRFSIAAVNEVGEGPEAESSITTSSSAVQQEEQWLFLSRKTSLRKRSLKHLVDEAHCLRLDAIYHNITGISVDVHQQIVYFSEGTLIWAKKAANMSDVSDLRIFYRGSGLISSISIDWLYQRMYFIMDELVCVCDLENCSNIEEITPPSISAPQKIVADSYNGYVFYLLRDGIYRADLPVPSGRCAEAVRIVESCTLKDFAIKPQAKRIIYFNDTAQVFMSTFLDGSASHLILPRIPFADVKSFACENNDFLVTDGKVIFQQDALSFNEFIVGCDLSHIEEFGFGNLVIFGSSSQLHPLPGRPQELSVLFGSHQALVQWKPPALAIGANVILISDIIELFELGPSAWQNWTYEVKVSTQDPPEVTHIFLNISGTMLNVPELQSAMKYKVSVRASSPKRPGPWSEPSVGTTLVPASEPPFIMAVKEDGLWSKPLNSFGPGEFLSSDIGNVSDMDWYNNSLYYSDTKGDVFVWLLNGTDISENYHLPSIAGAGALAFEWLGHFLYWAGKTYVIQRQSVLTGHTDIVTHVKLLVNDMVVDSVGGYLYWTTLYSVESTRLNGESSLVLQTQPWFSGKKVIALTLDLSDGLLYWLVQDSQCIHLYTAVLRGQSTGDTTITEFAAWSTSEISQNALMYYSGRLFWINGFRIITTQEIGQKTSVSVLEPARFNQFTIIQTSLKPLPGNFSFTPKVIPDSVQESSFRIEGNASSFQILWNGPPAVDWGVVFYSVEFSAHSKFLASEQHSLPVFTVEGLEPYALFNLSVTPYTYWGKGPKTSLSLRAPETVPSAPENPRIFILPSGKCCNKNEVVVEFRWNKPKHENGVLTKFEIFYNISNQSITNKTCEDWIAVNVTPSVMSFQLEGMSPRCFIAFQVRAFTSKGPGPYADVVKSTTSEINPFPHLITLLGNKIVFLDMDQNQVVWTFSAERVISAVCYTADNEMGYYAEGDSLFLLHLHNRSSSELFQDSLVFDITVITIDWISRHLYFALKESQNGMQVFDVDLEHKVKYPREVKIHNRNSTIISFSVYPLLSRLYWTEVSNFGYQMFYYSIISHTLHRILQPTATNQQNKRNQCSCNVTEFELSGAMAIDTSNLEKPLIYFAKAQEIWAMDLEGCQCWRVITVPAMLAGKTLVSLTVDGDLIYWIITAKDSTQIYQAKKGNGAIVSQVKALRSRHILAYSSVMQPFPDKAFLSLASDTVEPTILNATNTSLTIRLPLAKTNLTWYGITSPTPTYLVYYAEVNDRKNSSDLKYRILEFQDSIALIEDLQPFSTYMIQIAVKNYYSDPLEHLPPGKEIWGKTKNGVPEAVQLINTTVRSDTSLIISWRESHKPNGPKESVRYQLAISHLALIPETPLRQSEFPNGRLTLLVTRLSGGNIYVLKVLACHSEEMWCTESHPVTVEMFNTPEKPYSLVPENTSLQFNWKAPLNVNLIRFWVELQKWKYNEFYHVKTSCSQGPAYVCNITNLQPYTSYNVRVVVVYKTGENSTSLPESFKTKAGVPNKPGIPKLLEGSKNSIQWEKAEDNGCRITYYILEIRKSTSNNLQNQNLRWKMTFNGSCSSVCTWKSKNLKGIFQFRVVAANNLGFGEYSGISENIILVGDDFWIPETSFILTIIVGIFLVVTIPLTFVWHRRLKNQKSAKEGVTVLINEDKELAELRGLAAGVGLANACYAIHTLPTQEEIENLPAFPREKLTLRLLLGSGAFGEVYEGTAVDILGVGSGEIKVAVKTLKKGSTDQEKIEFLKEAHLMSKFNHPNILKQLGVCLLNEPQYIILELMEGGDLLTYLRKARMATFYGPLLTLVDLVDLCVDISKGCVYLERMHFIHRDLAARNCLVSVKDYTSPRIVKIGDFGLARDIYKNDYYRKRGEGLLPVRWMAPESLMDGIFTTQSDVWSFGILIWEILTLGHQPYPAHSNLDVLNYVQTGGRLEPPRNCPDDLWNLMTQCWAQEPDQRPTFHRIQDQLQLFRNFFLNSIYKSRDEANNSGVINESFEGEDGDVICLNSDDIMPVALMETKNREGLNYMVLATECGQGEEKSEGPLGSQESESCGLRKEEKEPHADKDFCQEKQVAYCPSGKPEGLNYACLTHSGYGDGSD
T9 sequence (P08922 28-2347 G2032R): as the sequence (P08922 28-2347) above, with G2005R counted along it
T5 sequence (P11362 22-822 V561M): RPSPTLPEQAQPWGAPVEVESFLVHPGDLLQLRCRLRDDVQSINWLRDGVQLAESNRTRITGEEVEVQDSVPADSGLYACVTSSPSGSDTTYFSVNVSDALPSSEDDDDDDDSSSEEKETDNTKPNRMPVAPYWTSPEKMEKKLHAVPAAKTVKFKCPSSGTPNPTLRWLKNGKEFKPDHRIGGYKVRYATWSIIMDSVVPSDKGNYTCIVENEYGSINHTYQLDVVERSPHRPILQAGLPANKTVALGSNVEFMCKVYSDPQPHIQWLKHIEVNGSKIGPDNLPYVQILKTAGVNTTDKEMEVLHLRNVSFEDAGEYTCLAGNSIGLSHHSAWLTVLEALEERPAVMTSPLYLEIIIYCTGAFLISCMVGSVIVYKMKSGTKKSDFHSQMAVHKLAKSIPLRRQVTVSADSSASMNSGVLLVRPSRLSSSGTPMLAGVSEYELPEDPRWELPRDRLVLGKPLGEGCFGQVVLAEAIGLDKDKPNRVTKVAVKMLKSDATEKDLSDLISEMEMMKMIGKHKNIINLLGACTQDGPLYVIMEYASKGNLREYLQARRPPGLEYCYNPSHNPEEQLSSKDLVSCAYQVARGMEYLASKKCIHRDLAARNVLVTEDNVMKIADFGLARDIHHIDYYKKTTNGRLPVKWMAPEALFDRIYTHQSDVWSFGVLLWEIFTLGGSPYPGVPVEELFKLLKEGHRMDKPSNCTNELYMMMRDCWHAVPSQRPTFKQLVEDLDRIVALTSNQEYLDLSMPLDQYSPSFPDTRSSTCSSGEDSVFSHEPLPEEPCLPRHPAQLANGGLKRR
T4 sequence (P11362 22-822): as the sequence (P11362 22-822 V561M) above, with M540V counted along it

Row | Molecule | IC50 (BaF3 EML4-ALK) [µM] | IC50 (KG-1 cell (OP2-FGFR1)) [µM] | IC50 (KM12 (TPM3-TRKA)) [µM] | ring closure, isolated yield [1] [%] | further results
1 | C[C@@H]1COc2cn3ncc4c3nc2N1Cc1cc(F)cc(F)c1O[C@@H](C)CNC4=O [Compound 7, (4R,12S)-8,10-difluoro-4,12-dimethyl-3,4,13,14-tetrahydro-6H-18,1-(metheno)[1,4]oxazino[3,4-i]pyrazolo[4,3-f][1,4,8,10]benzoxatriazacyclotridecin-15(12H)-one] | 0.0186 | 0.145 | 0.0002 |  | IC50 (ALK (G1202R)): 1.25 nM; IC50 (ALK): 0.853 nM; IC50 (ALK (L1196M)): 0.358 nM; IC50 (FGFR1): 53 nM; IC50 (FGFR1(V561M)): 137 nM; IC50 (FGFR2): 14.7 nM; IC50 (FGFR3): 30.5 nM; IC50 (FGFR4): 88.4 nM; IC50 (ROS1 (G2032R)): 0.678 nM; IC50 (ROS1): 0.111 nM
2 | C[C@@H]1COc2cn3ncc4c3nc2N1Cc1cc(F)cnc1O[C@H](CO)CNC4=O [Compound 98, (4R,12S)-8-fluoro-12-(hydroxymethyl)-4-methyl-3,4,13,14-tetrahydro-6H-18,1-(metheno)[1,4]oxazino[3,4-i]pyrazolo[4,3-f]pyrido[3,2-1][1,4,8,10]oxatriazacyclotridecin-15(12H)-one] | 4 | 3 | 0.0133 |  | 
3 | (4R,13R)-8-fluoro-4,13-dimethyl-3,4,13,14-tetrahydro-6H-18,1-(metheno)[1,4]oxazino[3,4-i]pyrazolo[4,3-f]pyrido[3,2-l][1,4,8,10]oxatriazacyclotridecin-15(12H)-one |  |  |  | 86 | 
4 | (5R,13S)-9-fluoro-5,13-dimethyl-4,5,14,15-tetrahydro-3H,7H-19,1-(metheno)[1,4]oxazepino[3,4-i]pyrazolo[4,3-f]pyrido[3,2-l][1,4,8,10]oxatriazacyclotridecin-16(13H)-one |  |  |  | 79 | 

More lines, main results first:

Row | IC50 (BaF3 EML4-ALK) [µM] | Molecule | IC50 (KG-1 cell (OP2-FGFR1)) [µM] | IC50 (KM12 (TPM3-TRKA)) [µM] | ring closure, isolated yield [1] [%] | further results
5 | 2 | C[C@@H]1COc2cn3ncc4c3nc2N(Cc2cc(F)cnc2OCCC(C)(C)NC4=O)C1 [Compound 99, (17S)-12-fluoro-6,6,17-trimethyl-5,6,7,8,17,18-hexahydro-4H,14H,16H-1,20-(metheno)[1,4]oxazepino[4,3-e]pyrazolo[3,4-h]pyrido[2,3-b][1,5,7,11]oxatriazacyclotetradecin-4-one] | 1.37 | 0.0637 |  | 
6 | 2.5 | C[C@@H]1COc2cn3ncc4c3nc2N(Cc2cc(F)cnc2OC[C@@H](C)CNC4=O)C1 [Compound 100, (7S,17S)-12-fluoro-7,17-dimethyl-5,6,7,8,17,18-hexahydro-4H,14H,16H-1,20-(metheno)[1,4]oxazepino-[4,3-e]pyrazolo[3,4-h]pyrido-[2,3-b][1,5,7,11]oxatriaza-cyclotetradecin-4-one] | 2.8 | 0.0728 |  | 
